Biological target: T1, Py235 (reticulocyte binding protein), nucleotide binding domain NBD94 (Plasmodium yoelii, UniProt Q7RPU0)
T1 construct: gene PY01365
Assay: fluorescence correlation spectroscopy titration

| Substance | Kd [µM] |
| --- | --- |
| EDA-ATP ATTO-647N | 228 ± 2.3 |
| EDA-ADP ATTO-647N | 331 ± 1.8 |
